Measurements as given in US20210317092A1 (BAYER PHARMA AKTIENGESELLSCHAFT, priority 2016, published 2021).

biological target: T1, human Bradykinin B1 receptor (Homo sapiens, UniProt P46663); test: Calcium flux Assay (FLIPR) with recombinant CHO-K1 cells expressing human Bradykinin B1 receptor, in presence (hB1 IC50) or absence (hB1 free IC50) of 0.1% BSA; assay type: cell-based; conditions: in absence of 0.1% BSA, read-out: hB1 free IC50
T1 construct: host or cells: CHO-K1
T1 sequence (P46663 1-353): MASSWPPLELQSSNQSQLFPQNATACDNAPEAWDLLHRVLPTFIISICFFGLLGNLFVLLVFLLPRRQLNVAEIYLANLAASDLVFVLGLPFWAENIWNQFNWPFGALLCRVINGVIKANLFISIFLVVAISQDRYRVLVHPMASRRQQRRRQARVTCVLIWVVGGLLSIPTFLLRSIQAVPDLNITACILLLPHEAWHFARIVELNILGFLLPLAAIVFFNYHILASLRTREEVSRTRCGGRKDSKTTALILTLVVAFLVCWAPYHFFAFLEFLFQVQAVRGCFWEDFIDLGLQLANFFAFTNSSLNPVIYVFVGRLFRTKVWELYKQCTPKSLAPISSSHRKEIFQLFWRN
Procedure: The potency to inhibit the Bradykinin B1 receptor was determined for the compounds of this invention in a cell-based fluorescent calcium-mobilisation assay. The assay measures the ability of test compounds to inhibit Bradykinin B1 receptor agonist-induced increase of intracellular free Ca^2+ in the cell line expressing Bradykinin B1 receptor. […] The change of the intracellular Ca^2+ concentration is monitored with a fluorescent plate reader FLIPR TETRA® (Molecular Devices).
Calcium flux Assays (FLIPR) with cells expressing human Bradykinin B1 receptor (hB1)
CHO-K1 cell line expressing human Bradykinin B1 receptor was purchased from Euroscreen (Gosselies, Belgium, with reference name hB1-D1). The cells were grown in Nutrient Mixture Ham's F12 (Sigma) containing 10% Foetal bovine serum (Sigma) and 400 μg/mL G418 (Sigma), 5 μg/mL puromycim (Sigma). […]
Cells were seeded in a volume of 50 μL in medium without antibiotics and incubated overnight in a humidified atmosphere with 5% CO2 at 37° C. […] The calcium indicator loaded cells were incubated at 37° C. for 2 hrs. Extracellular dye was then removed and each well was filled with 45 μL of assay buffer. Cell plates were kept in dark until used. Compound examples were assayed at 8 concentrations in triplicate. Serial 10-fold dilutions in 100% DMSO were made at a 100-times higher concentration than the final concentration, and then diluted 1:10 in assay buffer. 5 μL of each diluted compound was added to the well of cell plates (yielding final concentration with 1% DMSO), and incubated for 30 min at 28° C. before the addition of Bradykinin B1 receptor agonist on the FLIPR instrument.
A peptide antagonist Lys-(Des-Arg-Leu)-Bradykinin (Bachem, Brackley) at 20 µM was used to determine the full inhibition as control.
Peak fluorescence was used to determine the response to agonist obtained at each concentration of compound examples by the following equation:
% Response=100*(RFU(compound)−RFU(control))/(RFU(DMSO)−RFU(control)) • RFU means relative fluorescence units. • Control means full inhibition by the peptide antagonist Lys-(Des-Arg-Leu)-Bradykinin at 20 µM.
The response values were plotted against the logarithm of the compound concentrations. The compound examples were tested in triplicates per plate and mean values were plotted in Excel XLfit to determine IC50 values, percentage of maximal inhibition and the Hill slopes.

Row | IC50 [nM] | SMILES
1 | 284 | COc1cc(C2(C(=O)Nc3ccc(-c4ccc(OC)c(OC)c4)c(-c4nnn[nH]4)c3)CC2)ccc1F [Example 33, N-[3′,4′-dimethoxy-2-(1H-tetrazol-5-yl)biphenyl-4-yl]-1-(4-fluoro-3-methoxyphenyl) cyclopropane-carboxamide]
2 | 13.7 | COc1ccc(-c2ccc(NC(=O)C3(c4cccc(C(F)(F)F)c4)CC3)cc2-c2nnn[nH]2)cc1OC [Example 38, N-[3′,4′-dimethoxy-2-(1H-tetrazol-5-yl)biphenyl-4-yl]-1-[3-(trifluoromethyl)phenyl] cyclopropane-carboxamide]

same assay, conditions: in presence of 0.1% BSA, read-out: hB1 IC50

Row | SMILES | IC50 [nM]
3 | COc1ccc(-c2ccc(NC(=O)C3(c4c(F)cccc4F)CC3)cc2-c2nnn[nH]2)cc1OC [Example 29, 1-(2,6-difluorophenyl)-N-[3′,4′-dimethoxy-2-(1H-tetrazol-5-yl)biphenyl-4-yl]cyclopropane carboxamide] | 167
4 | COc1ccc(-c2ccc(NC(=O)C3(c4cc(F)ccc4Cl)CC3)cc2-c2nnn[nH]2)cc1OC [Example 30, 1-(2-chloro-5-fluorophenyl)-N-[3′,4′-dimethoxy-2-(1H-tetrazol-5-yl)biphenyl-4-yl]cyclopropane carboxamide] | 201
5 | COc1ccc(F)c(C2(C(=O)Nc3ccc(-c4ccc(OC)c(OC)c4)c(-c4nnn[nH]4)c3)CC2)c1 [Example 31, N-[3′,4′-dimethoxy-2-(1H-tetrazol-5-yl)biphenyl-4-yl]-1-(2-fluoro-5-methoxyphenyl) cyclopropane-carboxamide] | 212
6 | COc1cc(C2(C(=O)Nc3ccc(-c4ccc(OC)c(OC)c4)c(-c4nnn[nH]4)c3)CC2)ccc1F [Example 33, N-[3′,4′-dimethoxy-2-(1H-tetrazol-5-yl)biphenyl-4-yl]-1-(4-fluoro-3-methoxyphenyl) cyclopropane-carboxamide] | 238
7 | COc1ccc(-c2ccc(NC(=O)C3(C(F)(F)F)CC3)cc2-c2nnn[nH]2)cc1OC [Example 34, N-[3′,4′-dimethoxy-2-(1H-tetrazol-5-yl)biphenyl-4-yl]-1-(trifluoromethyl) cyclopropane-carboxamide] | 603
8 | COc1ccc(-c2ccc(NC(=O)C3(c4ccccc4)CC3)cc2-c2nnn[nH]2)cc1OC [Example 35, N-[3′,4′-dimethoxy-2-(1H-tetrazol-5-yl)biphenyl-4-yl]-1-phenylcyclo-propane-carboxamide] | 213
9 | COc1ccc(-c2ccc(NC(=O)C3(c4ccccc4C)CC3)cc2-c2nnn[nH]2)cc1OC [Example 37, N-[3′,4′-dimethoxy-2-(1H-tetrazol-5-yl)biphenyl-4-yl]-1-(2-methylphenyl) cyclopropane-carboxamide] | 1830
10 | COc1ccc(-c2ccc(NC(=O)C3(c4cccc(C(C)(C)C)c4)CC3)cc2-c2nnn[nH]2)cc1OC [Example 42, 1-(3-tert-butylphenyl)-N-[3′,4′-dimethoxy-2-(1H-tetrazol-5-yl)biphenyl-4-yl]cyclopropane carboxamide] | 746
11 | COc1ccc(C2(C(=O)Nc3ccc(-c4ccc(OC)c(OC)c4)c(-c4nnn[nH]4)c3)CC2)cc1 [Example 47, N-[3′,4′-dimethoxy-2-(1H-tetrazol-5-yl)biphenyl-4-yl]-1-(4-methoxyphenyl) cyclopropane-carboxamide] | 180
12 | COc1ccc(-c2ccc(NC(=O)C3(c4cccc(F)c4Cl)CC3)cc2-c2nnn[nH]2)cc1OC [Example 49, 1-(2-chloro-3-fluorophenyl)-N-[3′,4′-dimethoxy-2-(1H-tetrazol-5-yl)biphenyl-4-yl]cyclopropane carboxamide] | 213
13 | COc1ccc(-c2ccc(NC(=O)C3(c4cccc(Cl)n4)CC3)cc2-c2nnn[nH]2)cc1OC [Example 50, 1-(6-chloropyridin-2-yl)-N-[3′,4′-dimethoxy-2-(1H-tetrazol-5-yl)biphenyl-4-yl]cyclopropane carboxamide] | 310
14 | COc1ccc(-c2ccc(NC(=O)C3(c4ccc(Cl)nc4)CC3)cc2-c2nnn[nH]2)cc1OC [Example 51, 1-(6-Chloropyridin-3-yl)-N-[3′,4′-dimethoxy-2-(1H-tetrazol-5-yl)biphenyl-4-yl]cyclopropane carboxamide] | 342
15 | COc1ccc(-c2ccc(NC(=O)C3(Cc4ccccc4)CC3)cc2-c2nnn[nH]2)cc1OC [Example 53, 1-benzyl-N-[3′,4′-dimethoxy-2-(1H-tetrazol-5-yl)biphenyl-4-yl]cyclopropane carboxamide] | 514
16 | COc1ccc(-c2ccc(NC(=O)C3(CC4CCCCC4)CC3)cc2-c2nnn[nH]2)cc1OC [Example 54, 1-(cyclohexyl-methyl)-N-[3′,4′-dimethoxy-2-(1H-tetrazol-5-yl)biphenyl-4-yl]cyclopropane carboxamide] | 544
17 | COc1ccc(-c2ccc(NC(=O)C3(CC(C)C)CC3)cc2-c2nnn[nH]2)cc1OC [Example 55, N-[3′,4′-dimethoxy-2-(1H-tetrazol-5-yl)biphenyl-4-yl]-1-isobutyl-cyclopropane-carboxamide] | 2060
18 | COc1ccc(-c2ccc(NC(=O)C(C)(C)c3cccc(Cl)c3)cc2-c2nnn[nH]2)cc1OC [Example 61, 2-(3-chlorophenyl)-N-[3′,4′-dimethoxy-2-(1H-tetrazol-5-yl)biphenyl-4-yl]-2-methyl-propanamide] | 2050
19 | COc1ccc(-c2ccc(NC(=O)C3(c4cccc(Cl)c4)CCC3)cc2-c2nnn[nH]2)cc1OC [Example 62, 1-(3-chlorophenyl)-N-[3′,4′-dimethoxy-2-(1H-tetrazol-5-yl)biphenyl-4-yl]cyclobutane-carboxamide] | 2430

These reach a lower IC50. Values come first.

Row | IC50 [nM] | SMILES
20 | 51.5 | COc1ccc(-c2ccc(NC(=O)C3(c4cc(C(F)(F)F)ccc4F)CC3)cc2-c2nnn[nH]2)cc1OC [Example 27, N-[3′,4′-dimethoxy-2-(1H-tetrazol-5-yl)biphenyl-4-yl]-1-[2-fluoro-5-(trifluoromethyl)phenyl] cyclopropane-carboxamide]
21 | 138 | COc1ccc(-c2ccc(NC(=O)C3(c4ccc(F)cc4Cl)CC3)cc2-c2nnn[nH]2)cc1OC [Example 28, 1-(2-chloro-4-fluorophenyl)-N-[3′,4′-dimethoxy-2-(1H-tetrazol-5-yl)biphenyl-4-yl]cyclopropane carboxamide]
22 | 41.6 | COc1cc(F)cc(C2(C(=O)Nc3ccc(-c4ccc(OC)c(OC)c4)c(-c4nnn[nH]4)c3)CC2)c1 [Example 32]
23 | 38.8 | COc1ccc(-c2ccc(NC(=O)C3(c4cccc(C(F)(F)F)c4)CC3)cc2-c2nnn[nH]2)cc1OC [Example 38, N-[3′,4′-dimethoxy-2-(1H-tetrazol-5-yl)biphenyl-4-yl]-1-[3-(trifluoromethyl)phenyl] cyclopropane-carboxamide]
24 | 80.3 | COc1ccc(-c2ccc(NC(=O)C3(c4cccc(C)c4)CC3)cc2-c2nnn[nH]2)cc1OC [Example 39, N-[3′,4′-dimethoxy-2-(1H-tetrazol-5-yl)biphenyl-4-yl]-1-(3-methylphenyl) cyclopropane-carboxamide]
25 | 31.4 | CCc1cccc(C2(C(=O)Nc3ccc(-c4ccc(OC)c(OC)c4)c(-c4nnn[nH]4)c3)CC2)c1 [Example 40, N-[3′,4′-dimethoxy-2-(1H-tetrazol-5-yl)biphenyl-4-yl]-1-(3-ethylphenyl) cyclopropane-carboxamide]
26 | 92 | CCCc1cccc(C2(C(=O)Nc3ccc(-c4ccc(OC)c(OC)c4)c(-c4nnn[nH]4)c3)CC2)c1 [Example 41, N-[3′,4′-dimethoxy-2-(1H-tetrazol-5-yl)biphenyl-4-yl]-1-(3-propylpheny) cyclopropane-carboxamide]
27 | 14 | COc1ccc(-c2ccc(NC(=O)C3(c4ccc(Cl)cc4)CC3)cc2-c2nnn[nH]2)cc1OC [Example 43, 1-(4-chlorophenyl)-N-[3′,4′-dimethoxy-2-(1H-tetrazol-5-yl)biphenyl-4-yl]cyclopropane carboxamide]
28 | 49.8 | COc1ccc(-c2ccc(NC(=O)C3(c4ccc(C)cc4)CC3)cc2-c2nnn[nH]2)cc1OC [Example 45, N-[3′,4′-dimethoxy-2-(1H-tetrazol-5-yl)biphenyl-4-yl]-1-(4-methylphenyl) cyclopropane-carboxamide]
29 | 141 | COc1ccc(-c2ccc(NC(=O)C3(c4ccc(C(C)(C)C)cc4)CC3)cc2-c2nnn[nH]2)cc1OC [Example 46, 1-(4-tert-butylphenyl)-N-[3′,4′-dimethoxy-2-(1H-tetrazol-5-yl)biphenyl-4-yl]cyclopropane carboxamide]
30 | 36.6 | CCc1ccc(C2(C(=O)Nc3ccc(-c4ccc(OC)c(OC)c4)c(-c4nnn[nH]4)c3)CC2)cc1 [Example 57, N-[3′,4′-dimethoxy-2-(1H-tetrazol-5-yl)biphenyl-4-yl]-1-(4-ethylphenyl) cyclopropane-carboxamide]
